{"source": "patent US6503951B2", "about": "“Use of creatine and/or creatine derivatives for treating typical disorders in women” (SKW Trostberg Aktiengesellschaft, priority 1999, dated 2003)", "key": {"[1]": {"test_system": "depressions, lethargy and physical feebleness; blood pressure", "assay": "Case 6:  two", "type": "in vivo, person", "source_text": "Both they themself and their family noticed these improvements."}, "[2]": {"test_system": "migraines; pain during menstruation", "assay": "Case 2:  four with migraines and menstrual pain", "type": "in vivo, person"}, "[3]": {"test_system": "depressions, lethargy and physical feebleness", "assay": "Case 4: postmenopausal person seven", "type": "in vivo", "details": "daily dose of 1 to 4 g", "source_text": "The improvements were also noticed by their family."}, "PMS": {"test_system": "PMS", "assay": "Case 7:  six with PMS", "type": "in vivo, person", "details": "average daily dose of 5 g"}}}
{"compound": "CN(CC(=O)O)C(=N)N.O", "note": "[creatine monohydrate]", "values": [{"measurement": "blood pressure", "setting": "[1]; combined with an antihypertensive agent, previously severely hypertonic (sys up to 270)", "result": "returned to normal"}, {"measurement": "motivation (lethargy)", "setting": "[1]; daily dose of 1 to 5 g", "result": "unexpected new motivation"}, {"measurement": "spirits (depressions)", "setting": "[1]; daily dose of 1 to 5 g", "result": "rise in spirits"}, {"measurement": "strength (physical feebleness)", "setting": "[1]; daily dose of 1 to 5 g", "result": "increase in strength"}, {"measurement": "migraine attacks provoked by heat or bodily or mental exertion", "setting": "[2]; daily dose of 1.5 g, even under extreme conditions", "result": "able to prevent the attacks"}]}
{"compound": "creatine ascorbate", "values": [{"measurement": "motivation (lethargy)", "setting": "[3]", "result": "unexpectedly motivated"}, {"measurement": "spirits (depressions)", "setting": "[3]", "result": "rise in spirits"}, {"measurement": "strength (physical feebleness)", "setting": "[3]", "result": "gained in strength"}]}
{"compound": "creatine pyruvate", "values": [{"measurement": "abdominal pain", "setting": "PMS", "result": "no longer suffered"}, {"measurement": "physical complaints of PMS", "setting": "PMS", "result": "complete relief"}, {"measurement": "tenderness and swelling of the breast", "setting": "PMS", "result": "no longer suffered"}, {"measurement": "pain during menstruation", "setting": "[2]; dose not stated", "result": "able to stop the pain"}]}
